Source: patent US5047397A, “Linear analogs of atrial natriuretic peptides” (California Biotechnology Inc., priority 1988, dated 1991)
*1 amine or outer side, *2 acyl side, *3 side chain or, on linkers, in order; H or OH if unused. Where a SMILES comes first, the peptide text is derived from it. Where no end group is shown, it is not given here. [ ]: non-standard residue; d: D form. The star is where a group is joined. Acetyl(1-adamantyl) = O=C(CC12CC3CC(CC(C3)C1)C2)*; Butyryl(4-indol-3-yl) = O=C(CCCc1c[nH]c2ccccc12)*; Propanoyl(3,3-Ph2) = O=C(CC(c1ccccc1)c1ccccc1)*; Acetyl(2-naphthyloxy) = O=C(COc1ccc2ccccc2c1)*; X5 = O=C(C(Cc1cccc2ccccc12)Cc1cccc2ccccc12)*; Acetyl(2-naphthyl) = O=C(Cc1ccc2ccccc2c1)*; X4 = O=C(Cc1ccc(NCCc2ccc3ccccc3c2)cc1)*; NH(2S-methylbutyl) = CC[C@H](C)CN*; 2Naphthoyl = O=C(c1ccc2ccccc2c1)*; X1 = O=C(Cc1ccc(N[*:1])cc1)[*:2]; tBuAla = CC(C)(C)C[C@H](N)C(=O)O; Nle = CCCC[C@H](N)C(=O)O; Orn = NCCC[C@H](N)C(=O)O; X6 = O=C(C(Br)c1ccccc1)*; Inp = O=C(O)C1CCNCC1; Ava = NCCCCC(=O)O; NHiBu = CC(C)CN*; βAla = NCCC(=O)O; Sar = CNCC(=O)O

Biological target: T1, specific ANP receptor sites on BASM or BAE cells (Bos taurus, UniProt P10730)
T1 construct: specific receptor sites on BASM or BAE cells; endogenous in cells; host or cells: cultured BASM and BAE cells
T1 sequence (P10730 42-537): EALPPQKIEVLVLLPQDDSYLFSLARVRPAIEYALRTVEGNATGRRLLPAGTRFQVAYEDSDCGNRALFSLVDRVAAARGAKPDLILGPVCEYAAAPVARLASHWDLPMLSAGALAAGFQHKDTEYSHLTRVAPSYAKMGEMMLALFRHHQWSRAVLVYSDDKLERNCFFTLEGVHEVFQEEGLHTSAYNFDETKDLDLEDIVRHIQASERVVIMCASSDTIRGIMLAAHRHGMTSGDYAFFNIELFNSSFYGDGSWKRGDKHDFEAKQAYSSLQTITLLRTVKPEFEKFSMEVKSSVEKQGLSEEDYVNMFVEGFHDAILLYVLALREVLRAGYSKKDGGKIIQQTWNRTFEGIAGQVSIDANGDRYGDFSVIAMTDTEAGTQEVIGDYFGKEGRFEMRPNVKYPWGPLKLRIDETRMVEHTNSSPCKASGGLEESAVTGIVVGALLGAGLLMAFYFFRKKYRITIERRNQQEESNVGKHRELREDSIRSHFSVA
Assay: Competitive displacement receptor binding of (125I)-rANP(126-150) on cultured cells
Design: species or system bovine
Conditions: for Ki(app): concentration of unlabeled peptide displacing 50% of maximal binding of 0.5 nM (125I)-rANP(126-150), BASM or BAE cells
Source text: Analogous "competitive displacement" receptor binding assays are considered commonplace in the art for examining specific ligand-receptor interactions.
Assuming these ANP analogs act at one or more ANP receptor sites, then increased receptor affinity should reflect increased biological potency.

Row | Compound | Ki(app) [nM] | receptor binding / activity as judged by Ki, in words
1 | CC[C@H](C)[C@H](NC(=O)[C@H](CCCNC(=N)N)NC(=O)[C@H](CC(=O)O)NC(=O)[C@@H](NC(=O)[C@H](CCCNC(=N)N)NC(=O)CN(C)C(=O)CNC(=O)Cc1ccc2ccccc2c1)[C@@H](C)CC)C(N)=O [AP320, (2-NA)--G--(Sar)--R--I--D--R--I--NH2] ({Acetyl(2-naphthyl)}-G[Sar]RIDRI-NH2) | 47.4 | 
2 | CC[C@H](C)CNC(=O)[C@H](CCCNC(=N)N)NC(=O)[C@H](CC(=O)O)NC(=O)[C@@H](NC(=O)[C@H](CCCNC(=N)N)NC(=O)C1CCN(C(=O)COc2ccc3ccccc3c2)CC1)[C@@H](C)CC [AP810] ({Acetyl(2-naphthyloxy)-Inp}-RIDR-{NH(2S-methylbutyl)}) | 14.1 | 
3 | CCCC[C@H](NC(=O)CNC(=O)CNC(=O)Cc1ccc2ccccc2c1)C(=O)N[C@H](C(=O)N[C@@H](CC(=O)O)C(=O)N[C@@H](CCCNC(=N)N)C(=O)N[C@H](C(N)=O)[C@@H](C)CC)[C@@H](C)CC [AP514, (2-NA)--G--G--Nle--I--D--R--I--NH2] ({Acetyl(2-naphthyl)}-GG[Nle]IDRI-NH2) | 267.0 | very low, if any, activity
4 | FGGRIDRIGA-NH2 [AP126, F--G--G--R--I--D--R--I--G--A--NH2] | 2.16 | 
5 | CC[C@H](C)[C@H](NC(=O)[C@H](CCCNC(=N)N)NC(=O)[C@H](CC(=O)O)NC(=O)[C@@H](NC(=O)[C@H](CCCNC(=N)N)NC(=O)CNC(=O)CNC(=O)Cc1ccc2ccccc2c1)[C@@H](C)CC)C(=O)NCCCCC(N)=O [AP526, (2-NA)--G--G--R--I--D--R--I--NH--(CH2)4 --CONH2] ({Acetyl(2-naphthyl)}-GGRIDRI[Ava]-NH2) | 50.5 | 
6 | CC[C@H](C)[C@H](NC(=O)[C@H](CCCNC(=N)N)NC(=O)CNC(=O)CNC(=O)Cc1ccc2ccccc2c1)C(=O)N[C@@H](CC(=O)O)C(=O)N[C@@H](CCCNC(=N)N)C(=O)N[C@@H](CC(C)(C)C)C(N)=O [AP594, (2-NA)--G--G--R--I--D--R--tBuA--NH2] ({Acetyl(2-naphthyl)}-GGRIDR[tBuAla]-NH2) | 15.0 | 
7 | CC[C@H](C)[C@H](NC(=O)[C@H](CCCN)NC(=O)[C@H](CC(=O)O)NC(=O)[C@@H](NC(=O)[C@H](CCCNC(=N)N)NC(=O)CNC(=O)CNC(=O)Cc1ccc2ccccc2c1)[C@@H](C)CC)C(N)=O [AP592, (2-NA)--G--G--R--I--D--Orn--I--NH2] ({Acetyl(2-naphthyl)}-GGRID[Orn]I-NH2) | 25.0 | 
8 | CC[C@H](C)[C@H](NC(=O)[C@H](CCCNC(=N)N)NC(=O)[C@H](CC(=O)O)NC(=O)[C@@H](NC(=O)[C@H](CCCNC(=N)N)NC(=O)CNC(=O)[C@@H](CO)NC(=O)Cc1ccc2ccccc2c1)[C@@H](C)CC)C(N)=O [AP330, (2-NA)--S^ --G--R--I--D--R--I--NH2] ({Acetyl(2-naphthyl)}-[dS]GRIDRI-NH2) | 16.4 | 
9 | CC[C@H](C)[C@H](NC(=O)[C@H](CCCNC(=N)N)NC(=O)[C@H](CC(=O)O)NC(=O)[C@@H](NC(=O)[C@H](CCCNC(=N)N)NC(=O)Cc1ccc(NCCc2ccc3ccccc3c2)cc1)[C@@H](C)CC)C(N)=O [AP796] (X4-RIDRI-NH2) | 27.3 | 
10 | CC[C@H](C)[C@H](NC(=O)[C@H](CCCNC(=N)N)NC(=O)[C@H](CC(=O)O)NC(=O)[C@@H](NC(=O)[C@H](CCCNC(=N)N)NC(=O)C1CCN(C(=O)Cc2ccc3ccccc3c2)CC1)[C@@H](C)CC)C(N)=O [AP538] ({Acetyl(2-naphthyl)-Inp}-RIDRI-NH2) | 9.9 | 
11 | CC[C@H](C)[C@H](NC(=O)[C@H](CCCNC(=N)N)NC(=O)[C@H](CC(=O)O)NC(=O)[C@@H](NC(=O)[C@H](CCCNC(=N)N)NC(=O)CCNC(=O)CCCc1c[nH]c2ccccc12)[C@@H](C)CC)C(=O)NCC(=O)N[C@@H](C)C(N)=O [AP532, (3-IB)--beta--Ala--R--I--D--R--I--G--A--NH2)] ({Butyryl(4-indol-3-yl)-βAla}-RIDRIGA-NH2) | 11.95 | 
12 | CC[C@H](C)[C@H](NC(=O)[C@H](CCCNC(=N)N)NC(=O)[C@H](CCC(=O)O)NC(=O)[C@@H](NC(=O)[C@H](CCCNC(=N)N)NC(=O)CNC(=O)CNC(=O)Cc1ccc2ccccc2c1)[C@@H](C)CC)C(N)=O [AP518, (2-NA)--G--G--R--I--E--R--I--NH2] ({Acetyl(2-naphthyl)}-GGRIERI-NH2) | 38 | 
13 | CC[C@H](C)[C@H](NC(=O)[C@H](CCCNC(=N)N)NC(=O)[C@H](CC(=O)O)NC(=O)[C@H](CC(C)(C)C)NC(=O)[C@H](CCCNC(=N)N)NC(=O)CNC(=O)CNC(=O)Cc1ccc2ccccc2c1)C(N)=O [AP590, (2-NA)--G--G--R--tBuA--D--R--I--NH2] ({Acetyl(2-naphthyl)}-GGR[tBuAla]DRI-NH2) | 12.0 | 
14 | CC[C@H](C)[C@H](NC(=O)[C@H](CCCNC(=N)N)NC(=O)[C@H](CC(=O)O)NC(=O)[C@@H](NC(=O)[C@H](CCCNC(=N)N)NC(=O)CNC(=O)CNC(=O)C(Cc1cccc2ccccc12)Cc1cccc2ccccc12)[C@@H](C)CC)C(=O)NCC(=O)N[C@@H](C)C(N)=O [AP533] (X5-GGRIDRIGA-NH2) | 52.0 | 
15 | CC[C@H](C)[C@H](NC(=O)[C@H](CCCNC(=N)N)NC(=O)[C@H](CC(=O)O)NC(=O)[C@@H](NC(=O)[C@H](CCCNC(=N)N)NC(=O)CNC(=O)CNC(=O)CC(c1ccccc1)c1ccccc1)[C@@H](C)CC)C(=O)NCC(=O)N[C@@H](C)C(N)=O [AP331, (3-DPP)--G--G--R--I--D--R--I--G--A--NH2] ({Propanoyl(3,3-Ph2)}-GGRIDRIGA-NH2) | 6.15 | 
16 | CC[C@H](C)CNC(=O)[C@H](CCCNC(=N)N)NC(=O)[C@H](CC(=O)O)NC(=O)[C@@H](NC(=O)[C@H](CCCNC(=N)N)NC(=O)Cc1ccc(NC(=O)c2ccc3ccccc3c2)cc1)[C@@H](C)CC [AP811] (2Naphthoyl-[X1]RIDR-{NH(2S-methylbutyl)}) | 2.52 | 
17 | CC[C@H](C)[C@H](NC(=O)[C@H](CCCNC(=N)N)NC(=O)CNC(=O)CNC(=O)[C@H](Cc1ccccc1)NC(=O)[C@H](C)N)C(=O)N[C@@H](CC(=O)O)C(=O)N[C@H](CCCNC(=N)N)C(=O)N[C@H](C(=O)NCC(=O)N[C@@H](C)C(N)=O)[C@@H](C)CC [AP304, A--F--G--G--R--I--D--R^ --I--G--A--NH2] (H-AFGGRID[dR]IGA-NH2) | 95.6 | 
18 | CC[C@H](C)[C@H](NC(=O)[C@H](CCCNC(=N)N)NC(=O)[C@H](CC(=O)O)NC(=O)[C@@H](NC(=O)[C@H](CCCNC(=N)N)NC(=O)CNC(=O)CNC(=O)CC12CC3CC(CC(C3)C1)C2)[C@@H](C)CC)C(N)=O [AP309, (1-AA)--G--G--R--I--D--R--I--NH2] ({Acetyl(1-adamantyl)}-GGRIDRI-NH2) | 30.0 | 
19 | CC[C@H](C)[C@H](NC(=O)[C@H](CCCNC(=N)N)NC(=O)CNC(=O)CNC(=O)COc1ccc2ccccc2c1)C(=O)N[C@@H](CC(=O)O)C(=O)N[C@@H](CCCNC(=N)N)C(=O)NCC(C)C [AP509] ({Acetyl(2-naphthyloxy)}-GGRIDR-NHiBu) | 120.0 | 
20 | CC[C@H](C)[C@H](NC(=O)[C@H](CCCNC(=N)N)NC(=O)[C@H](CC(=O)O)NC(=O)[C@@H](NC(=O)[C@H](CCCNC(=N)N)NC(=O)CNC(=O)CCCc1c[nH]c2ccccc12)[C@@H](C)CC)C(=O)NCC(=O)N[C@@H](C)C(N)=O [AP531, (3-IB)--G--R--I--D--R--I--G--A--NH2)] ({Butyryl(4-indol-3-yl)}-GRIDRIGA-NH2) | 9.34 | 
21 | CC[C@H](C)[C@H](NC(=O)[C@H](CCCNC(=N)N)NC(=O)[C@H](CC(=O)O)NC(=O)[C@@H](NC(=O)[C@H](CCCNC(=N)N)NC(=O)C1CCN(C(=O)c2ccc3ccccc3c2)CC1)[C@@H](C)CC)C(N)=O [AP562] ({2Naphthoyl-Inp}-RIDRI-NH2) | 22.4 | 
22 | CC[C@H](C)[C@H](NC(=O)[C@H](CCCNC(=N)N)NC(=O)[C@H](CC(=O)O)NC(=O)[C@@H](NC(=O)[C@H](CCCNC(=N)N)NC(=O)Cc1ccc(NC(=O)C(Br)c2ccccc2)cc1)[C@@H](C)CC)C(N)=O (stereo partly drawn) [AP818] (X6-[X1]RIDRI-NH2) | 20.5 | 
23 | CC[C@H](C)[C@H](NC(=O)[C@H](CCC(N)=O)NC(=O)[C@H](CC(=O)O)NC(=O)[C@@H](NC(=O)[C@H](CCCNC(=N)N)NC(=O)CNC(=O)CNC(=O)Cc1ccc2ccccc2c1)[C@@H](C)CC)C(N)=O [AP351, (2-NA)--G--G--R--I--D--Q--I--NH2] ({Acetyl(2-naphthyl)}-GGRIDQI-NH2) | 20.0 | 
24 | CC[C@@H](C)[C@@H](NC(=O)[C@H](CCCNC(=N)N)NC(=O)[C@H](CC(=O)O)NC(=O)[C@@H](NC(=O)[C@H](CCCNC(=N)N)NC(=O)CNC(=O)CNC(=O)[C@H](Cc1ccccc1)NC(=O)[C@H](C)N)[C@@H](C)CC)C(=O)NCC(=O)N[C@@H](C)C(N)=O [AP305, A--F--G--G--R--I--D--R--I^ --G--A--NH2] (H-AFGGRIDR[dI]GA-NH2) | 70.62 | 
25 | FGGRIDRI-NH2 [AP119, F--G--G--R--I--D--R--I--NH2] | 8.9 | 
26 | CC[C@H](C)[C@H](NC(=O)[C@H](CCCNC(=N)N)NC(=O)[C@H](CC(=O)O)NC(=O)[C@@H](NC(=O)[C@H](CCCNC(=N)N)NC(=O)CNC(=O)CCCc1c[nH]c2ccccc12)[C@@H](C)CC)C(=O)NCC(=O)N[C@@H](C)C(N)=O [AP597, (3-IB)--G--R--I--D--R--I--G--A--NH2] ({Butyryl(4-indol-3-yl)}-GRIDRIGA-NH2) | 9.3 | 
